According to patent publication US12090140B2, “Non-sedating dexmedetomidine treatment regimens” (priority 2023, dated 2024):
“And” between values parts separate entries of the source, which are not always exact repeats. Equal entries are not always repeated. Structures can show the parent of a compound that is named as a salt. Where two headings read alike, the source gives them in different places.

Columns and labels:
[1] = IV infusion
Source text: (§1) Mean infusion rate is 0.36 mcg/kg/hr with the maximum rate ranging from about 0.2 mcg/kg/hr to about 0.6 mcg/kg/hr (see FIGS. 18 to 20).

[2] = pH 7.4; cited from earlier work
[3] = tested on: subjects suffering from schizophrenia; conditions: for RASS values after infusion start, individual patients: IV infusion, treatment arm
Source text: Another Key Objective of the study was to determine the reduction in the level of agitation, as determined by their PEC score, at the doses to achieve a RASS of −1.
Patients 5, 7, 8 and 9 received placebo.

clinical = conditions: human, in vivo, iv
Source text: as §1

plasma proteins = conditions: in vitro; cited from earlier work
[4] = tested on: agitation in subjects suffering from schizophrenia
[5] = cited from earlier work; for Mean clearance relative to subjects with normal hepatic function: IV infusion of 0.6 meg/kg over 10 minutes
[6] = tested on: adult patients and healthy adult subjects; conditions: cited from earlier work
[7] = IV infusion from 0.2 mcg/kg/hr, rising 0.1 mcg/kg/hr every 30 minutes

Cc1cccc([C@H](C)c2cnc[nH]2)c1C [Dexmedetomidine hydrochloride, 4-[(1S)-1-(2,3-dimethylphenyl)ethyl]-1H-imidazole hydrochloride]
Plasma level concentration ([1]; Patient 1 (treatment), 15 min): 0.02245 ng/mL | Plasma level concentration ([1]; Patient 1 (treatment), 30 min): 0.01472 ng/mL | Plasma level concentration ([1]; Patient 4 (treatment), 90 min): 0.0443 ng/mL | Plasma level concentration ([1]; Patient 11 (treatment), 15 min): 0.04101 ng/mL | Plasma level concentration ([1]; Patient 11 (treatment), 30 min): 0.06291 ng/mL | Plasma level concentration ([1]; Patient 11 (treatment), 45 min): 0.12407 ng/mL | Plasma level concentration ([1]; Patient 11 (treatment), 60 min): 0.15047 ng/mL | Plasma level concentration ([1]; Patient 12 (treatment), 30 min): 0.04487 ng/mL | Plasma level concentration ([1]; Patient 12 (treatment), 45 min): 0.05051 ng/mL | Plasma level concentration ([1]; Patient 12 (treatment), 60 min): 0.1086 ng/mL | Plasma level concentration ([1]; Patient 12 (treatment), 75 min): 0.15854 ng/mL | Plasma level concentration ([1]; Patient 12 (treatment), 90 min): 0.23783 ng/mL | Plasma level concentration ([1]; Patient 14 (treatment), 30 min): 0.05266 ng/mL | Plasma level concentration ([1]; Patient 14 (treatment), 45 min): 0.04653 ng/mL | Plasma level concentration ([1]; Patient 14 (treatment), 60 min): 0.4063 ng/mL | Plasma level concentration ([1]; Patient 16 (treatment), 15 min): 0.00256 ng/mL | Plasma level concentration ([1]; Patient 16 (treatment), 30 min): 0.01559 ng/mL | Plasma level concentration ([1]; Patient 16 (treatment), 45 min): 0.04117 ng/mL | Plasma level concentration ([1]; Patient 16 (treatment), 60 min): 0.06788 ng/mL | Plasma level concentration ([1]; Patient 16 (treatment), 75 min): 0.07226 ng/mL | Plasma level concentration ([1]; Patient 17 (treatment), 15 min): 0.01587 ng/mL | Plasma level concentration ([1]; Patient 17 (treatment), 45 min): 0.03993 ng/mL | Plasma level concentration ([1]; Patient 18 (treatment), 15 min): 0.04836 ng/mL | Plasma level concentration ([1]; Patient 18 (treatment), 30 min): 0.05453 ng/mL | Partition coefficient in octanol/water [2]: 2.89 | RASS values after infusion start, individual patients ([3]; 15 minutes, hydrochloride): −2 and −1 | RASS values after infusion start, individual patients ([3]; 30 minutes): 0 | RASS values after infusion start, individual patients ([3]; 75 minutes): −1 | RASS values after infusion start, individual patients ([3]; 90 minutes): 0 | Patients achieving a RASS score of at least −1 [3, 7]: 9 out of 10 | RASS values after infusion start, individual patients ([3]; […]): 0 | Cmax (clinical): 0.022 ng/mL | Displacement of phenytoin, warfarin, ibuprofen, propranolol, theophylline and digoxin (plasma proteins): none of these compounds appeared to be significantly displaced | Patients with agitation reduced to a minimum (PEC score of 7 or below) [4, 7]: 9 out of 10 | Subjects with >=50% reduction in PEC score ([4]; IV route): 7 of 10 | Subjects with a 40% reduction in PEC score at a Cmax of =<72 μg/mL ([4]; IV route): 5 of 10

Cc1cccc([C@H](C)c2c[nH]cn2)c1C [intravenous dexmedetomidine]
Effect of sex on pharmacokinetics ([5]; intravenous): no observed difference | Mean clearance relative to subjects with normal hepatic function ([5]; mild hepatic impairment): 74% | Mean clearance for free drug relative to subjects with normal hepatic function ([5]; mild hepatic impairment): 59% | Mean clearance relative to subjects with normal hepatic function ([5]; moderate hepatic impairment): 64% | Mean clearance for free drug relative to subjects with normal hepatic function ([5]; moderate hepatic impairment): 51% | Mean clearance relative to subjects with normal hepatic function ([5]; severe hepatic impairment): 53% | Mean clearance for free drug relative to subjects with normal hepatic function ([5]; severe hepatic impairment): 32% | Effects of overdose ([6]; IV 2 mcg/kg loading dose over 10 minutes, two patients): bradycardia and/or hypotension | Maximum blood concentration in tolerability study ([6]; IV doses at and above 0.2 to 0.7 mcg/kg/hour, healthy adult subjects): approximately 13 times the upper boundary of the therapeutic range | Most notable effects at the highest doses ([6]; IV tolerability study, two subjects): first degree atrioventricular block and second-degree heart block | Adult patients with at least 1 event related to withdrawal, n (%) ([6]; IV up to 7 days, within the first 24 hours after discontinuing): 12 (5%) | Adult patients with at least 1 event related to withdrawal, n (%) ([6]; IV, 24 to 48 hours after discontinuing): 7 (3%) | Frequency of tachycardia and hypertension requiring intervention ([6]; IV, 48 hours following discontinuation): < 5%
